Assay results taken from US9073954B2, “5-substituted benzimidazolium compounds” (Boehringer Ingelheim International GmbH, priority 2013, dated 2015).

Assays:
[1] = Permeability in CALU-3 cells; type: in vitro ADME; conditions: human, CALU-3 monolayers, 10 μM compound, pH 7.4, 37° C.; for Papp A→B at 90 min, 10 μM: apical-to-basal; for Papp B→A at 90 min, 10 μM: basal-to-apical
Description: Permeability in CALU-3 Cells:
Permeability measurements across polarized, confluent CALU-3 cell monolayers grown on permeable filter supports are used to provide information on the potential of a compound to pass the lung epithelium. Apparent permeability coefficients (Papp) of the compounds across the CALU-3 cell monolayers are measured (pH 7.4, 37° C.) in apical-to-basal (AB) and basal-toapical (BA) transport direction.
CALU-3 cells (1-2×10^5 cells/1 cm^2 area) are seeded on filter inserts (Costar transwell polycarbonate filters, 0.4 μm pore size) and cultured (for 10-12 days DMEM) until tight monolayers are formed. Compounds of interest are dissolved in appropriate solvent (DMSO, 10 mM stock solution). Stock solutions are diluted with HTP-4 buffer (128.13 mM NaCl, 5.36 mM KC, 1 mM MgSO4, 1.8 mM CaCl2, 4.17 mM NaHCO3, 1.19 mM Na2HPO4×7H2O, 0.41 mM NaH2PO4xH2O, 15 mM HEPES, 20 mM glucose, 0.25% BSA, pH 7.4) to prepare the transport solutions (10 μM compound, final DMSO<=0.5%). The transport solution (TL) is applied to the apical or basolateral donor side for measuring A-B or B-A permeability (3 filter replicates), respectively. The receiver side contains the same buffer as the donor side. After 30 min of accommodation, samples are collected at the start t0=0 min and at the end of the experiment tn=90 min from the donor and at 0, 30, 60, and 90 min also from the receiver chamber. Volume removed is replenished by HTP-4 buffer. The compound concentration in the samples is measured by HPLC-MS/MS or scintillation counting. The permeability coefficient (Papp) and efflux ratio are calculated according to: Papp [cm/s]=(concentration receiver [nM]*volume receiver [mL]/time interval [sec])*(1/filter area)*(1/donor concentration [nM])
With example compounds given above, the following permeability values were determined in the CALU-3 cells assay: […]

[2] = target: T1, ENaC (Epithelial Sodium Channel) (Mus musculus, UniProt Q61180+Q9WU38+Q9WU39); experiment: Ussing chamber: short circuit current in M-1 cells; type: cell-based; conditions: Ussing chamber, mouse kidney M-1 cells, amiloride sensitive I_SC, apical application, 37° C.; read-out: IC50
T1 construct: Mouse kidney M-1 cells were cultivated in DMEM; endogenous in cells; host or cells: mouse kidney M-1 cells
T1 sequence (Q61180 1-699): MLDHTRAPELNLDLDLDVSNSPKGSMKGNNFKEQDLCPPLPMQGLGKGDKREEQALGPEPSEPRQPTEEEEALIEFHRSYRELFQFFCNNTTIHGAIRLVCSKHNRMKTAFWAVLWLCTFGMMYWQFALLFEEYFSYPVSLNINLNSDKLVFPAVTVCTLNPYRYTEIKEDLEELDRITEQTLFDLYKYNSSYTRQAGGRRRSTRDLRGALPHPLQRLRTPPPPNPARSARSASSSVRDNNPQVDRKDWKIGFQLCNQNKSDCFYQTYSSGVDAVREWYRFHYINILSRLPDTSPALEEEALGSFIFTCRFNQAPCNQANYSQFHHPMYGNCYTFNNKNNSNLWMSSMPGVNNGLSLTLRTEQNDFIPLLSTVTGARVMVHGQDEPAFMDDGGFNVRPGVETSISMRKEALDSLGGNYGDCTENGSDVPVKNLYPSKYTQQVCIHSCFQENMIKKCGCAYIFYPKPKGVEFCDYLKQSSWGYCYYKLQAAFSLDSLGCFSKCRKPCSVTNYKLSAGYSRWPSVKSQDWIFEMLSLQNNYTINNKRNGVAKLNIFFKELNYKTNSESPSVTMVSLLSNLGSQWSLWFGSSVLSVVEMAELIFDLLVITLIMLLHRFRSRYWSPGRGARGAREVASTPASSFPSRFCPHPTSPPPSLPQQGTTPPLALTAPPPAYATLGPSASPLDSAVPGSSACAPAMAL
T1 sequence (Q9WU38 1-638): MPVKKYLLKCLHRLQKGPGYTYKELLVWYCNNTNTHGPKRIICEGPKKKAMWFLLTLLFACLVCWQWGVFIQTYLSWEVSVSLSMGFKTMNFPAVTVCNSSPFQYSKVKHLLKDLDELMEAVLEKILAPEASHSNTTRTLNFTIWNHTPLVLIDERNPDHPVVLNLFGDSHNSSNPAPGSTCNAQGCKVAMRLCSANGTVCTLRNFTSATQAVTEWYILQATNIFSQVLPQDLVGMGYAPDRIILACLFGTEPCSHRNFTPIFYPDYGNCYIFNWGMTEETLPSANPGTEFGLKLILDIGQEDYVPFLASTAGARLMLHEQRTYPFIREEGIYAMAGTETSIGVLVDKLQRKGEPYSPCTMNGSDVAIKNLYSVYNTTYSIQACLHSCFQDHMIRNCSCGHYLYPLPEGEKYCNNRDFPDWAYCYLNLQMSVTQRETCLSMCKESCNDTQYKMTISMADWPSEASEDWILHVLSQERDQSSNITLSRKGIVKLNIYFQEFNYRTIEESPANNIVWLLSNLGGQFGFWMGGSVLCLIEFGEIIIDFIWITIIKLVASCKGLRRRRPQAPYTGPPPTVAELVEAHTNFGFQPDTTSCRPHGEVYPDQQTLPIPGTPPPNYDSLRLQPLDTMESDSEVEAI
T1 sequence (Q9WU39 1-655): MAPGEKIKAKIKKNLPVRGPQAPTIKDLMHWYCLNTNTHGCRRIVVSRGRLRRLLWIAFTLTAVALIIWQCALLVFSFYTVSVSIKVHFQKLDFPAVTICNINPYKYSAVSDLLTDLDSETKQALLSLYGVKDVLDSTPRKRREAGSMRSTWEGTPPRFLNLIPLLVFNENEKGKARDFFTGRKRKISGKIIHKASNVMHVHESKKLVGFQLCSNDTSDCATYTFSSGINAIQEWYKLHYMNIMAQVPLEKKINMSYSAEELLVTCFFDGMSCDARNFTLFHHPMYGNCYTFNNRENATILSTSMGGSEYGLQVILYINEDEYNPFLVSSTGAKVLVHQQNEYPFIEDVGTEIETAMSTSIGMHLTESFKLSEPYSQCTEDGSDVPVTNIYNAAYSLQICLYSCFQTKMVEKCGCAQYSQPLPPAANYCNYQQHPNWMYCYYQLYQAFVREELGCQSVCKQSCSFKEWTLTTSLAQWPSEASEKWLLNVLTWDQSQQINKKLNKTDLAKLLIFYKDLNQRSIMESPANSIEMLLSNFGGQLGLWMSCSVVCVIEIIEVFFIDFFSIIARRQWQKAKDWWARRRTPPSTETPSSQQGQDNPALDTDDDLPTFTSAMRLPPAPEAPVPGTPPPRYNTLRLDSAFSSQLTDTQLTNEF
Description: Mouse kidney M-1 cells were cultivated in DMEM containing 5% FCS and 5 μM dexamethasone for 10 to 12 days on polyester transwell filters. Filters were inserted into a teflon-coated well-plate which fit into the ussing chamber system. Prior to measurement the medium of M-1 cells was replaced with Caco-2 transport buffer (Invitrogen, Germany). During measurements, the Ussing chamber temperature was kept at 37° C. Short circuit currents (I_sc) were measured in the voltage-clamp mode with the software package Lab View for data acquisition and analysis. The transepithelial electrical resistance (TEER) was determined by the application of voltage steps of ±5 mV every 5 sec. Compounds were administered at a final concentration of 3 μM or at increasing concentrations (1-3-10 μM) to the apical solution. At the end of each experiment the amiloride sensitive I_SC was measured by adding 3 μM amiloride to the apical compartment. Results are expressed as inhibition in percent of the amiloride effect or as IC50.
With the example compounds given above, the following IC50 values were determined in the Ussing Chamber assay: […]

Papp A→B at 90 min, 10 μM [1] | Papp B→A at 90 min, 10 μM [1] | IC50 [2] | Structure (SMILES)
2 nm/s | 2 nm/s | 0.4 nM | CCn1c(CNC(=O)c2nc(Cl)c(N)nc2N)[n+](C)c2cc(Cl)c(OCCOCCOC)cc21 [Example 3.8]
1 nm/s | 2 nm/s | 0.4 nM | CCn1c(CNC(=O)c2nc(Cl)c(N)nc2N)[n+](CC)c2cc(F)c(C(=O)N3CCOCC3)cc21 [Example 3.12]
< 9 nm/s | 2 nm/s | 2 nM | CCn1c(CNC(=O)c2nc(Cl)c(N)nc2N)[n+](CC)c2ccc(CNC(=O)CN(C)C)cc21.[Cl-] [Example 7.1]
